From patent US7041682B2, “NK1 antagonists” (Schering Corporation, priority 2002, dated 2006)
Values joined by “and” are separate entries in the source; they are usually repeats but may differ in a detail not shown here. Equal values may be shown once.

Target: NK1 receptor (Homo sapiens, UniProt P25103)
Test: NK1 receptor binding: inhibition of the NK1 agonist Substance P, Ki from percent of maximum specific binding
Details: inhibition constant from the concentration giving 50% inhibition of binding (Chang-Prusoff equation)
Text: The in vitro and in vivo NK1, NK2 and NK3 activities of the compounds having the formula (I) can be determined by various procedures known in the art, such as a test for their ability to inhibit the activity of the NK1 agonist Substance P. The percent inhibition of neurokinin agonist activity is the difference between the percent of maximum specific binding (“MSB”) and 100%. The percent of MSB is defined by the following equation, wherein “dpm” represents “disintegrations per minute”:
[formula] The concentration at which the compound produces 50% inhibition of binding is then used to determine an inhibition constant (“Ki”) using the Chang-Prusoff equation. In vivo activity may be measured by inhibition of an agonist-induced foot tapping in a gerbil, as described in Science, 281, 1640–1695 (1998), which is herein incorporated by reference thereto.

Sequence of NK1 receptor (P25103 whole entry, species assumed): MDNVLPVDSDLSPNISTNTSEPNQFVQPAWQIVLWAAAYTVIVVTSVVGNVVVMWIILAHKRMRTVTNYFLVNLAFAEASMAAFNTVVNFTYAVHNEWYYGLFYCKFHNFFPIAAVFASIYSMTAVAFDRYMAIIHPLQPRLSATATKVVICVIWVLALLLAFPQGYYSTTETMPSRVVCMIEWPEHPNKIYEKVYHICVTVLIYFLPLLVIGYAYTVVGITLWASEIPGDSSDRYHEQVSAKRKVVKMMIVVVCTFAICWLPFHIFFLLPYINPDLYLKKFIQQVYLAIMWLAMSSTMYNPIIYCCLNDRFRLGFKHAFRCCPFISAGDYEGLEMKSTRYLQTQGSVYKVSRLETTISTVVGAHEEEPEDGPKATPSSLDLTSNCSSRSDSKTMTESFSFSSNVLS

SMILES	Ki
O=C1NCCN1N1CCC(COCc2cc(C(F)(F)F)cc(C(F)(F)F)c2)(c2ccccc2)CC1 [Example 51]	0.3 to 3 nM
C[C@@H](OCC1(c2ccccc2)CCN(N2CCCC2=O)CC1)c1cc(C(F)(F)F)cc(C(F)(F)F)c1 [Example 56]	0.3 to 3 nM and ~0.3 nM
O=C1CCCN1N1CCC(COCc2cc(C(F)(F)F)cc(C(F)(F)F)c2)(c2ccccc2)CC1 [Example 49]	0.3 to 3 nM

Other lines, results leading:

Ki	SMILES
0.3 to 3 nM	O=c1[nH]ncn1N1CCC(COCc2cc(C(F)(F)F)cc(C(F)(F)F)c2)(c2ccccc2)CC1 [Example 64]
0.3 to 3 nM	O=C1CCCN1N1CCC(COC(CO)c2cc(C(F)(F)F)cc(C(F)(F)F)c2)(c2ccccc2)CC1 (centres unmarked) [Example 57]
